Patent US5202434A, “8a-aza-8a-homoerythromycin lactams” (Merck & Co., Inc., priority 1992, dated 1993)
Values after ≈ are worked out from the molar mass of the structure shown.

Columns and labels:
Experiment in all cases: MIC, liquid turbidimetric microtiter broth method
Type in all cases: cell-based
[1] = test system: Streptococcus viridans CL 2943; conditions: CL2943
Source text: (§1) The compounds of formula (II) will show antibacterial activity against a range of aerobic Gram positive and negative bacteria as shown in the following Table. The assay employs a liquid turbidimetric microtiter method for determination of the minimum inhibitory concentration (MIC) in broth media. […] The MIC is generally not an absolute value but rather a concentration range that falls within a two-fold dilution limit. Generally, twelve two-fold dilutions of the test compound are employed with the initial concentration set at 128 mcg/ml.

[2] = test system: Steptococcus pneumoniae CL 2883
Source text: as §1

Escherichia coli MB 4926 = conditions: MB4926
Source text: as §1

SMILES: CC[C@H]1OC(=O)[C@H](C)[C@@H](O[C@H]2C[C@@](C)(OC)[C@@H](O)[C@H](C)O2)[C@H](C)[C@@H](O[C@@H]2O[C@H](C)C[C@H](N(C)C)[C@H]2O)[C@](C)(O)C[C@@H](C)NC(=O)[C@H](C)[C@@H](O)[C@]1(C)O [8aaza-8a-homoerythromycin A, 8a-Aza-8a-homoerythromycin A]
- MIC [1]: 4 µg/mL (≈ 5.34 µM)
- MIC [2]: ≤ 0.06 µg/mL
- MIC (Escherichia coli MB 4926): 4 µg/mL (≈ 5.34 µM)
